According to US7262165B2, “Aqueous preparation containing oligopeptides and etherified cyclodextrin” (Merck Patent GmbH, priority 2002, dated 2007):
≈ marks a conversion by molar mass, not a printed value.

Test: Saturation solubilities of the oligopeptide (cilengitide) in the solvent indicated, with pH
Assay type: physicochemical
Settings: in physiological saline solution
Description: In order to determine the saturation solubilities, the oligopeptide was stirred for 1 hour at room temperature in the solvent indicated in each case.
Analogously to Example 1, the effect of addition of β-cyclodextrin ethers (MS 0.63) on the saturation solubilities of the oligopeptides was determined using the example of cilengitide.

Work on CC(C)[C@H]1C(=O)N[C@@H](CCCN=C(N)N)C(=O)NCC(=O)N[C@@H](CC(=O)O)C(=O)N[C@H](Cc2ccccc2)C(=O)N1C [Cilengitide, cyclo-(Arg-Gly-Asp-D-Phe-NMe-Val)] yielded a solubility at 1 h of about 19 mg/mL (≈ 32.3 mM).
